Measured values as given in patent US20130243847A1, “ACTIVATED CREATININE AND PRECURSORS THEREOF AS ANTIBACTERIAL AGENTS, COMPOSITIONS AND PRODUCTS CONTAINING SUCH AGENTS AND USE THEREOF” (BOARD OF REGENTS OF THE UNIVERSITY OF NEBRASKA, priority 2010, published 2013).

Assays:
Format in all cases: cell-based
S. aureus = assay: Disc diffusion assay of creatine esters (Example 6); details: approx. 50 μL anhydrous polyethylene glycol carrier with 28% by weight agent
Method: Four (4) different creatine esters were prepared according to the method of U.S. Pat. No. 6,897,334 to Vennerstrom. The esters thus prepared were activated in the manner described herein to impart antibacterial activity thereto. Four (4) test formulations were prepared, each including approximately 50 μL of an anhydrous polyethylene glycol carrier containing 28% by weight of a different creatine ester. Each formulation was added to a 6 mm disc and inverted onto a brain heart infusion agar plate that was previously spread with S. aureus at 10^5 organisms per mL. Plates were incubated at 37° C. overnight and the clear zones showing inhibition of bacterial growth were measured.

Staphylococcus aureus = assay: Disc assay of creatinine activated with different acids (Example 1, FIG. 1); details: for antibacterial activity after acid activation (FIG. 1): 5 mg acidified creatinine in Eridex on 6 mm disc, pH 5.0-5.5, S. aureus 10^5 per mL; for antibacterial activity of acid in Eridex alone: without creatinine at pH 5.5
Method: A 2 molar solution of anhydrous creatinine (Sigma-Aldrich Chemical Co. St. Louis, Mo.) was prepared in water (113 mg in 0.5 ml H2O) and adjusted to pH 5.0-5.5 with different acids. Twenty five microliters of each pH adjusted solution was added to 30 milligrams of a powdered carrier, Eridex™, (crystalline sugar alcohol) (Cargill Inc. Cedar Rapids, Iowa), and stirred into a thickened slurry. Approximately 50 microliters of each mixture, containing 5 mg of acidified creatinine, was applied to a 6 mm disc and inverted onto a brain heart infusion agar plate that was spread one hour prior with Staphylococcus aureus diluted to 10^5 organisms per milliliter. Plates were incubated at 37° C. overnight and the clear zones showing inhibition of bacterial growth were measured. Each sample was run in duplicate and reported as an average +/−1 mm of the two measurements. Creatinine HCl was used as an internal standard on each plate to provide uniformity from plate to plate (measurements varied <0.5 mm). Hydrochloride sig, a commercial creatinine HCl salt from Sigma-Aldrich, was used at pH 5.0 with no adjustment.

[1] = test system: Acinetobacter baumannii high level resistance (HLR); assay: Disc diffusion assay, CEE vs gentamicin; details: A. baumannii HLR; 50 mg anhydrous topical cream with 28% by weight agent; gentamicin 10 μg disc
Method: (§1) This testing involved the use of 50 mg of an anhydrous topical cream containing the antibacterial agent of the invention in an amount of 28% by weight and 10 μg of gentamicin, impregnated into a standard commercially available disc (Remel, Lenoxa Kans.).

[2] = test system: Candida albicans laboratory strain 24433; assay: Disc diffusion assay, CEE vs gentamicin; details: C. albicans laboratory strain 24433; 50 mg anhydrous topical cream with 28% by weight agent; gentamicin 10 μg disc
Method: as §1

[3] = test system: Enterococcus faecalis laboratory strain 29212; assay: Disc diffusion assay, CEE vs gentamicin; details: E. faecalis laboratory strain 29212; 50 mg anhydrous topical cream with 28% by weight agent; gentamicin 10 μg disc
Method: as §1

[4] = test system: Enterococcus faecium vancomycin resistant (VRE); assay: Disc diffusion assay, CEE vs gentamicin; details: E. faecium VRE; 50 mg anhydrous topical cream with 28% by weight agent; gentamicin 10 μg disc
Method: as §1

[5] = test system: Escherichia coli laboratory strain 35150; assay: Disc diffusion assay, CEE vs gentamicin; details: E. coli laboratory strain 35150; 50 mg anhydrous topical cream with 28% by weight agent; gentamicin 10 μg disc
Method: as §1

[6] = test system: Pseudomonas aeruginosa high level resistance (HLR); assay: Disc diffusion assay, CEE vs gentamicin; details: P. aeruginosa HLR; 50 mg anhydrous topical cream with 28% by weight agent; gentamicin 10 μg disc
Method: as §1

[7] = test system: Pseudomonas aeruginosa laboratory strain 27853; assay: Disc diffusion assay, CEE vs gentamicin; details: P. aeruginosa laboratory strain 27853; 50 mg anhydrous topical cream with 28% by weight agent; gentamicin 10 μg disc
Method: as §1

[8] = test system: Staphylococcus aureus laboratory strain 29213; assay: Disc diffusion assay, CEE vs gentamicin; details: S. aureus laboratory strain 29213; 50 mg anhydrous topical cream with 28% by weight agent; gentamicin 10 μg disc
Method: as §1

[9] = test system: Staphylococcus aureus methicillin resistant (MRSA); assay: Disc diffusion assay, CEE vs gentamicin; details: S. aureus MRSA; 50 mg anhydrous topical cream with 28% by weight agent; gentamicin 10 μg disc
Method: as §1

[10] = test system: Escherichia coli beta lactamase producer (ESBL); details: E. coli ESBL; 50 mg anhydrous topical cream with 28% by weight agent; gentamicin 10 μg disc
Method: as §1

`CN(CC(=O)OCc1ccccc1)C(=N)N` [Benzyl] was tested, and the “Zone of Inhibition” value (S. aureus) was 23 mm.

With `CCCCCCCCOC(=O)CN(C)C(=N)N` [Octyl] the “Zone of Inhibition” value (S. aureus) was 27 mm.

With `CC(=O)O` [acetate] the “antibacterial activity after acid activation (FIG. 1)” value (from here on “antibacterial activity … (FIG. 1)”) (Staphylococcus aureus) was “significant activity” and the “antibacterial activity … (FIG. 1)” value (Staphylococcus aureus; listed as creatinine activated with acetic acid) was “substantially greater antibacterial activity than creatinine activated with nitric or hydrochloric acid”.

For `CC(=O)O` [acetic acid, reference compound], the “antibacterial activity of acid in Eridex alone” value (Staphylococcus aureus) was “no antibacterial activity”.

`O=C(O)CC(O)(CC(=O)O)C(=O)O` [citric acid, reference compound] was tested, and the “antibacterial activity of acid in Eridex alone” value (Staphylococcus aureus) was “no antibacterial activity”.

With Gentamicin [Gn, reference compound] the “Zone of Inhibition” value [1] was 6 mm, the “Zone of Inhibition” value [2] was 8 mm and the “Zone of Inhibition” value [3] was 14 mm. For the same compound, the “Zone of Inhibition” value [4] was 8 mm, the “Zone of Inhibition” value [5] was 21 mm and the “Zone of Inhibition” value [6] was 8 mm. The “Zone of Inhibition” value [7] was 21 mm, the “Zone of Inhibition” value [8] was 24 mm and the “Zone of Inhibition” value [9] was 7 mm. For the same compound, the “Zone of Inhibition” value [10] was 24 mm.

citrate was tested, and the “antibacterial activity … (FIG. 1)” value (Staphylococcus aureus) was “significant activity”.

In the case of fumaric, the “antibacterial activity … (FIG. 1)” value (Staphylococcus aureus) is reported as “little to no antibacterial activity”.

In the case of sulfuric, the “antibacterial activity … (FIG. 1)” value (Staphylococcus aureus) is reported as “little to no antibacterial activity”.
